The numbers were not newly measured in US20100227930A1 (priority 2009, published 2010), which cites them from elsewhere.

Structures are written as SMILES.

Data set [1] concerns fish. The settings on record: in vivo.
Data set [2] relates to Daphnia magna.
In data set [3] the test system is algae. To be noted: duration not given.
The conditions of data set [4]: compared with the 2:1:1 blend of three quaternary ammonium compounds.
In data set [5] the test system is rainbow trout. To be noted: in vivo.
For data set [6] the following is noted: species not given.

For `O=C([O-])CC(NC(CC(=O)[O-])C(=O)[O-])C(=O)[O-].[Na+].[Na+].[Na+].[Na+]` (stereo not drawn) [IDS, iminodisuccinate tetrasodium salt], the “DL50 oral rat acute toxicity” value is given as “over 2,000 mg/kg”. In addition, in data set [1], the “acute aquatic toxicity fish” value is 82.6 mg/L. For the same compound, in data set [2] (in vivo), the “EC0 Daphnia Magna” value was 84 mg/L. Further, in data set [3], the “EC50 Algae” value was 94.5 µg/mL.
For `CCCCCCCCCC[N+](C)(C)CCCCCCCCCC.[Cl-]` [didecyl dimethyl ammonium chloride], the water solubility result in data set [4] was “poorer water solubility”.
Turning to `O=C([O-])CCC(C(=O)[O-])N(CC(=O)[O-])CC(=O)[O-].[Na+].[Na+].[Na+].[Na+]` (stereo not drawn) [Dissolvine GL, Glutamic acid, N,N Diacetic acid and their Tetrasodium salts], the “EC50 fish (rainbow trout)” value in data set [5] is more than 100 µg/mL. For the same compound, in data set [2] (duration not given), the “EC50 Daphnia Magna” value was more than 100 µg/mL. Also, the “EC50 Algae” value in data set [3] is more than 100 µg/mL.
Turning to `COC(C)COC(C)CO` (stereo not drawn) [Dipropylene glycol methyl ether], the aquatic acute toxicity in data set [6] is more than 100 mg/L.
